The text below walks through data of ChEMBL document CHEMBL4483862, “Open-source discovery of chemical leads for next-generation chemoprotective antimalarials” (2018).

For the assay, the system named is Plasmodium berghei. Nature of the assay: Luciferase/luciferin-expressing antifolate-resistant parasites were used to infect a culture of HepG2 cells that were pre-incubated with compounds. Infected hepatocytes emit light due to the luciferase reaction. Assay results are presented as the percent inhibition of light emission compared to control. […]. Format: functional. The conditions noted are these: sporozoite; for IC90: read-out: LUCIFERASE INFECTION ASSAY - IC90.

Structures are written as SMILES.

For the compound `Cc1c(C(=O)Nc2nonc2-c2ccc(F)cc2)oc2ccc(F)cc12`, the 90% effect concentration (IC90) (in general, the concentration at which the effect reaches the 90% level) worked out at 8.3 µM. The IC50 (usually the concentration that gives 50% inhibition) (HEPG2TOX_HILL_SLOPE 16.1, HEPG2TOX_R_SQUARED 0.611, PBLUC_HILL_SLOPE 12, PBLUC_R_SQUARED 0.0677, read-out: LUCIFERASE INFECTION ASSAY - IC50) was 6.91 µM.
Turning to `Cc1ccc(NC(=O)c2snnc2C)cc1Cl`, the IC90 was over 12.3 µM. In addition, the IC50 (HEPG2TOX_HILL_SLOPE 16.5, HEPG2TOX_R_SQUARED 0.725, read-out: LUCIFERASE INFECTION ASSAY - IC50) was over 12.3 µM.
Consider `NC(Cc1ccccc1)c1csc(Nc2nncc3ccccc23)n1` (stereo not drawn), for which the IC90 worked out at 3.88 µM. Moreover, for the setting “HEPG2TOX_HILL_SLOPE 16.4, HEPG2TOX_R_SQUARED 0.287, PBLUC_HILL_SLOPE 15.9, PBLUC_R_SQUARED 0.415, read-out: LUCIFERASE INFECTION ASSAY - IC50”, the IC50 worked out at 3.38 µM.
Consider `O=C1C=CC(=O)N1Cc1ccccc1`, for which the IC90 is over 17.6 µM. Moreover, the IC50 (HEPG2TOX_HILL_SLOPE 16.7, HEPG2TOX_R_SQUARED 0.468, read-out: LUCIFERASE INFECTION ASSAY - IC50) is over 17.6 µM.
For `NC(=S)N/N=C/c1ccc(Cl)cc1`, the IC90 is over 15.4 µM. Besides, the IC50 (HEPG2TOX_HILL_SLOPE 16.1, HEPG2TOX_R_SQUARED 0.56, PBLUC_HILL_SLOPE 1.65, PBLUC_R_SQUARED 0.115, read-out: LUCIFERASE INFECTION ASSAY - IC50) was over 15.4 µM.
Consider `COc1cc(Nc2nccn3c(-c4ccc(OC(F)(F)F)cc4)cnc23)cc(OC)c1OC`, for which the IC90 is 4.53 µM. In addition, the IC50 (HEPG2TOX_HILL_SLOPE 16.8, HEPG2TOX_R_SQUARED 0.492, PBLUC_HILL_SLOPE 4.79, PBLUC_R_SQUARED 0.767, read-out: LUCIFERASE INFECTION ASSAY - IC50) was found to be 2.86 µM.
`O=c1c(Cl)c(Cl)cnn1-c1ccc(Cl)cc1Cl`: the IC90 came to 3.5 µM. Further, the half-maximal inhibitory concentration (IC50) (HEPG2TOX_HILL_SLOPE 16.8, 1.83, HEPG2TOX_R_SQUARED 0.839, 0.915, PBLUC_HILL_SLOPE 1.48, 10.9, PBLUC_R_SQUARED 0.768, 0.409, read-out: LUCIFERASE INFECTION ASSAY - IC50) came out at 3.64 µM.
Take `Cc1ccc(C(=O)Nc2nc(-c3ccccn3)cs2)cc1S(=O)(=O)N1CCCCC1`: the IC90 was found to be 8.14 µM. The concentration for half-maximal inhibition (IC50) (HEPG2TOX_HILL_SLOPE 16.5, HEPG2TOX_R_SQUARED 0.73, PBLUC_HILL_SLOPE 17.5, PBLUC_R_SQUARED 0.446, read-out: LUCIFERASE INFECTION ASSAY - IC50) was determined as 7.18 µM.
Take `O=C(c1cccc(-c2cccnc2)c1)c1cnc(Nc2ccccc2)[nH]1`: the IC90 amounted to 9.25 µM. For the setting “HEPG2TOX_HILL_SLOPE 16.4, HEPG2TOX_R_SQUARED 0.215, PBLUC_HILL_SLOPE 5.04, PBLUC_R_SQUARED 0.615, read-out: LUCIFERASE INFECTION ASSAY - IC50”, the IC50 turned out to be 5.98 µM.
`CCCCC#CC1(O)c2ccccc2C(=O)N1c1ccccc1` (stereo not drawn): the IC90 is 9.4 µM. Moreover, the 50% inhibitory concentration (IC50) (HEPG2TOX_HILL_SLOPE 16.6, HEPG2TOX_R_SQUARED 0.582, PBLUC_HILL_SLOPE 7.49, PBLUC_R_SQUARED 0.197, read-out: LUCIFERASE INFECTION ASSAY - IC50) is 7.01 µM.
Regarding `Cn1cc(C(=O)Nc2ccc(Sc3ccc(Br)cc3)cc2)cn1`, the IC90 was found to be 6.49 µM. Further, where the note is “HEPG2TOX_HILL_SLOPE 16.3, HEPG2TOX_R_SQUARED 0.811, PBLUC_HILL_SLOPE 1.99, PBLUC_R_SQUARED 0.873, read-out: LUCIFERASE INFECTION ASSAY - IC50”, the IC50 amounted to 2.15 µM.
For `c1ccc(-c2csc3ncnc(NC4CCCCC4)c23)cc1`, the IC90 worked out at 4.21 µM. In addition, for the setting “HEPG2TOX_HILL_SLOPE 16.2, HEPG2TOX_R_SQUARED 0.468, PBLUC_HILL_SLOPE 9.94, 2.76, PBLUC_R_SQUARED 0.433, 0.667, read-out: LUCIFERASE INFECTION ASSAY - IC50”, the IC50 stood at 4.13 µM.
For the compound `CCS(=O)(=O)N1CCC(C(=O)Nc2nnc(-c3cccc([N+](=O)[O-])c3)o2)(c2ccccc2)CC1`, the concentration for an effect of 90% (IC90) came out at 4.58 µM. Further, the IC50 (HEPG2TOX_HILL_SLOPE 16.8, 22.3, HEPG2TOX_R_SQUARED 0.565, 0.956, PBLUC_HILL_SLOPE 8.45, PBLUC_R_SQUARED 0.439, read-out: LUCIFERASE INFECTION ASSAY - IC50) stood at 3.53 µM.
Turning to `O=c1[nH]c2ccc(-c3csc(Nc4ccc(Cl)cc4)n3)cc2o1`, the 90% effect concentration (IC90) is over 10 µM. The IC50 (HEPG2TOX_HILL_SLOPE 16.7, HEPG2TOX_R_SQUARED 0.933, PBLUC_HILL_SLOPE 4.05, PBLUC_R_SQUARED 0.109, read-out: LUCIFERASE INFECTION ASSAY - IC50) was determined as 7.81 µM.
In the case of `CC(=O)c1ccc(-c2ccc(C(=O)Nc3cnc4c(cnn4C(C)C)c3)o2)cc1`, the 90% effect concentration (IC90) is 8.52 µM. Further, under “HEPG2TOX_HILL_SLOPE 16.5, HEPG2TOX_R_SQUARED 0.628, PBLUC_HILL_SLOPE 4.19, PBLUC_R_SQUARED 0.524, read-out: LUCIFERASE INFECTION ASSAY - IC50”, the IC50 stood at 5.04 µM.
As to `CCOc1ccc(C(C)NC(=O)c2nc(SC)ncc2Cl)cc1` (stereo not drawn), the IC90 is 4.29 µM. The IC50 (HEPG2TOX_HILL_SLOPE 16.5, HEPG2TOX_R_SQUARED 0.52, PBLUC_HILL_SLOPE 11.3, PBLUC_R_SQUARED 0.138, read-out: LUCIFERASE INFECTION ASSAY - IC50) turned out to be 3.53 µM.
`Cn1c(CSCc2nc(-c3ccc(Cl)cc3)cs2)nnc1SCC(=O)Nc1ccc(Cl)cc1`: the IC90 is over 6.15 µM. Further, the IC50 (HEPG2TOX_HILL_SLOPE 16.7, HEPG2TOX_R_SQUARED 0.854, PBLUC_HILL_SLOPE 1.35, PBLUC_R_SQUARED 0.574, read-out: LUCIFERASE INFECTION ASSAY - IC50) was over 6.15 µM.
In the case of `CCN(CC)c1ccc(/C=N/NC(=S)NCC2CCCO2)c(O)c1` (stereo not drawn), the IC90 was over 10 µM. The IC50 (HEPG2TOX_HILL_SLOPE 16.0, 27.0, HEPG2TOX_R_SQUARED 0.190, 0.836, PBLUC_HILL_SLOPE 15.6, PBLUC_R_SQUARED 0.223, read-out: LUCIFERASE INFECTION ASSAY - IC50) is 8.89 µM.
Turning to `COc1cc2c(cc1NC(=O)Cn1cnc(C#N)n1)oc1ccccc12`, the IC90 was over 10 µM. The IC50 (HEPG2TOX_HILL_SLOPE 16.6, HEPG2TOX_R_SQUARED 0.479, read-out: LUCIFERASE INFECTION ASSAY - IC50) was over 10 µM.
Regarding `Fc1ccc(C(Nc2ncnc3ccsc23)c2cccs2)cc1` (stereo not drawn), the concentration for an effect of 90% (IC90) amounted to 6.3 µM. Moreover, under “HEPG2TOX_HILL_SLOPE 16.1, HEPG2TOX_R_SQUARED 0.824, PBLUC_HILL_SLOPE 385, PBLUC_R_SQUARED 0.0246, read-out: LUCIFERASE INFECTION ASSAY - IC50”, the IC50 amounted to 6.26 µM.
Turning to `Cn1ccnc1SCc1n[nH]c(=O)c2ccccc12`, the IC90 came to 8.93 µM. The IC50 (HEPG2TOX_HILL_SLOPE 15.9, HEPG2TOX_R_SQUARED 0.771, PBLUC_HILL_SLOPE 3.2, PBLUC_R_SQUARED 0.661, read-out: LUCIFERASE INFECTION ASSAY - IC50) worked out at 4.5 µM.
`c1ccc(Cn2c(-c3cccnc3)cc3cnc(Nc4ccc(N5CCOCC5)cc4)cc32)cc1`: the IC90 was 8.6 µM. Under “HEPG2TOX_HILL_SLOPE 16.1, HEPG2TOX_R_SQUARED 0.869, PBLUC_HILL_SLOPE 3.82, PBLUC_R_SQUARED 0.619, read-out: LUCIFERASE INFECTION ASSAY - IC50”, the IC50 was 4.83 µM.
On to `c1ccc(-c2nnc3ccc(-c4cccs4)cn23)cc1`, for which the IC90 is over 10 µM. For the same compound, the IC50 (HEPG2TOX_HILL_SLOPE 16.6, HEPG2TOX_R_SQUARED 0.17, read-out: LUCIFERASE INFECTION ASSAY - IC50) is over 10 µM.
Regarding `O=C(Cn1nnc(-c2ccccc2)n1)N/N=C/c1c(O)ccc2ccccc12`, the IC90 was over 10 µM. In addition, under “HEPG2TOX_HILL_SLOPE 16.4, HEPG2TOX_R_SQUARED 0.547, PBLUC_HILL_SLOPE 10.9, PBLUC_R_SQUARED 0.367, read-out: LUCIFERASE INFECTION ASSAY - IC50”, the half-maximal inhibitory concentration (IC50) amounted to 8.32 µM.
As for `N#Cc1cc(Br)c(OCc2c(F)cccc2Cl)c(Br)c1`, the IC90 amounted to 6.23 µM. For the setting “HEPG2TOX_HILL_SLOPE 16.7, HEPG2TOX_R_SQUARED 0.384, PBLUC_HILL_SLOPE 6.36, PBLUC_R_SQUARED 0.0513, read-out: LUCIFERASE INFECTION ASSAY - IC50”, the IC50 worked out at 4.41 µM.
As to `CCOC(=O)c1cc(C#N)c(Sc2nnc(SC)s2)nc1C(F)(F)F`, the IC90 was over 8.12 µM. Besides, where the note is “HEPG2TOX_HILL_SLOPE 16.4, HEPG2TOX_R_SQUARED 0.12, PBLUC_HILL_SLOPE 2.78, PBLUC_R_SQUARED 0.452, read-out: LUCIFERASE INFECTION ASSAY - IC50”, the half-inhibitory concentration (IC50) stood at 4.34 µM.
As to `CS(=O)(=O)N1CCCc2cc(-c3csc(Nc4ccccn4)n3)ccc21`, the IC90 stood at 2.51 µM. Besides, the IC50 (HEPG2TOX_HILL_SLOPE 15.9, HEPG2TOX_R_SQUARED 0.84, PBLUC_HILL_SLOPE 1.6, PBLUC_R_SQUARED 0.55, read-out: LUCIFERASE INFECTION ASSAY - IC50) came to 0.637 µM.
On to `CS(=O)(=O)NCCc1ccc(C(=O)Nc2ccc(Cl)c(C(F)(F)F)c2)s1`, for which the concentration for an effect of 90% (IC90) was over 10 µM. For the same compound, the IC50 (HEPG2TOX_HILL_SLOPE 16.3, HEPG2TOX_R_SQUARED 0.947, PBLUC_HILL_SLOPE 9.17, PBLUC_R_SQUARED 0.224, read-out: LUCIFERASE INFECTION ASSAY - IC50) was 8.32 µM.
For the compound `O=c1c(Cl)c(Cl)cnn1-c1ccccc1`, the IC90 was over 13.7 µM. In addition, where the note is “HEPG2TOX_HILL_SLOPE 16.5, HEPG2TOX_R_SQUARED 0.386, read-out: LUCIFERASE INFECTION ASSAY - IC50”, the IC50 was over 13.7 µM.
